In brackets after ≈: the same amount, converted by molar mass.
Experiments:
[1] = test system: Enterococcus faecalis (ATCC 29212); assay: Antibiotic susceptibility by glucose consumption in culture medium, blood culture bottle inoculum (Example 1); format: cell-based; details: for Glucose concentration t=0: 0 minutes; for Glucose concentration t=60: 60 minutes; for Glucose concentration t=120: 120 minutes; for Glucose concentration t=180: 180 minutes; for Glucose concentration t=240: 240 minutes; for dC/dT: rate of change in glucose concentration;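 on dC/dT: rate calculated between the 60 and 180 min readings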
Procedure: (§1) Strains of Escherichia coli (ATCC 25922), Enterococcus faecalis (ATCC 29212) and Staphylococcus aureus (ATCC 29213) were inoculated in blood culture bottles (SVA, Uppsala, Sweden) and cultivated according to the manufacturer's instructions until positive.
(§2) Medium from each blood culture bottle was diluted 1:100 with cation adjusted Mueller-Hinton broth (SVA, Uppsala, Sweden) supplemented with glucose to a concentration of 1.0 mg/mL.
(§3) Table 1: Concentrations of antibiotic agents are given in µg/mL.
(§4) Glucose concentrations were measured at 0, 60, 120, 180, and 240 minutes using a WaveSense Jazz glucometer (AgaMatrix, Inc., Salem, NH, USA) with accompanying test strips.
(§5) Susceptibility scores corresponding to MIC values were calculated as described above. A 80% threshold was applied, i.e. the lowest concentration of antibiotic that entailed a rate of change in glucose concentration that was equal to or less than 80% of the reference was selected as the Minimal Inhibitory Concentration. The rate of change was calculated between the measurements at 60 and 180 minutes.

[2] = test system: Escherichia coli (ATCC 25922); assay: as above; format: cell-based; details: for Glucose concentration t=0: 0 minutes; for Glucose concentration t=60: 60 minutes; for Glucose concentration t=120: 120 minutes; for Glucose concentration t=180: 180 minutes; for dC/dT: rate of change in glucose concentration; for Glucose concentration t=240: 240 minutes;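 on dC/dT: rate calculated between the 60 and 180 min readings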
Procedure: as §1, §2, §3, §4, §5

## CO[C@@]1(NC(=O)Cc2cccs2)C(=O)N2C(C(=O)O)=C(COC(N)=O)CS[C@@H]21 [Cefoxitin]
[1]; Enterococcus faecalis, ATCC29212, E.faecalis, initial value, disregarded because rate of decrease was higher at 32 µg/mL, read-out: MIC value initially obtained
  MIC: 4 µg/mL (≈ 9.36 µM)
[1]; [Ab] 0,5 µg/mL
  F=the rate of change in glucose concentration in relation to the reference: 88%
  Glucose concentration t=0: 145
  Glucose concentration t=60: 150
  Glucose concentration t=120: 144
  Glucose concentration t=180: 87
  Glucose concentration t=240: 32
  dC/dT: 32
[1]; [Ab] 0,25 µg/mL
  F=the rate of change in glucose concentration in relation to the reference: 93%
  Glucose concentration t=0: 151
  Glucose concentration t=60: 155
  Glucose concentration t=120: 138
  Glucose concentration t=180: 88
  Glucose concentration t=240: 34
  dC/dT: 34
[1]; [Ab] 1 µg/mL
  F=the rate of change in glucose concentration in relation to the reference: 85%
  Glucose concentration t=0: 148
  Glucose concentration t=60: 159
  Glucose concentration t=120: 142
  Glucose concentration t=180: 98
  Glucose concentration t=240: 31
  dC/dT: 31
[1]; [Ab] 2 µg/mL
  F=the rate of change in glucose concentration in relation to the reference: 99%
  Glucose concentration t=0: 149
  Glucose concentration t=60: 169
  Glucose concentration t=120: 145
  Glucose concentration t=180: 98
  Glucose concentration t=240: 36
  dC/dT: 36
[1]; [Ab] 4 µg/mL
  F=the rate of change in glucose concentration in relation to the reference: 74%
  Glucose concentration t=0: 150
  Glucose concentration t=60: 159
  Glucose concentration t=120: 146
  Glucose concentration t=180: 106
  Glucose concentration t=240: 27
  dC/dT: 27
[1]; [Ab] 8 µg/mL
  F=the rate of change in glucose concentration in relation to the reference: 63%
  Glucose concentration t=0: 144
  Glucose concentration t=60: 149
  Glucose concentration t=120: 147
  Glucose concentration t=180: 104
  Glucose concentration t=240: 23
  dC/dT: 23
[1]; [Ab] 16 µg/mL
  F=the rate of change in glucose concentration in relation to the reference: 68%
  Glucose concentration t=0: 148
  Glucose concentration t=60: 154
  Glucose concentration t=120: 148
  Glucose concentration t=180: 105
  Glucose concentration t=240: 25
  dC/dT: 25
[1]; [Ab] 32 µg/mL
  F=the rate of change in glucose concentration in relation to the reference: 74%
  Glucose concentration t=0: 148
  Glucose concentration t=60: 155
  Glucose concentration t=120: 140
  Glucose concentration t=180: 102
  Glucose concentration t=240: 27
  dC/dT: 27
[2]; Escherichia coli, ATCC25922, E.coli, 80% threshold of rate of change vs reference, between 60 and 180 minutes, obtained in 4 hours, read-out: MIC Measured
  MIC: 4 µg/mL (≈ 9.36 µM)
[2]; [Ab] 0,5 µg/mL
  F=the rate of change in glucose concentration in relation to the reference: 139%
  Glucose concentration t=0: 139
  Glucose concentration t=60: 154
  Glucose concentration t=120: 140
  Glucose concentration t=180: 54
  dC/dT: 86
[2]; [Ab] 0,25 µg/mL
  F=the rate of change in glucose concentration in relation to the reference: 165%
  Glucose concentration t=0: 145
  Glucose concentration t=60: 157
  Glucose concentration t=120: 143
  Glucose concentration t=180: 41
  dC/dT: 102
[2]; [Ab] 1 µg/mL
  F=the rate of change in glucose concentration in relation to the reference: 129%
  Glucose concentration t=0: 144
  Glucose concentration t=60: 150
  Glucose concentration t=120: 143
  Glucose concentration t=180: 63
  dC/dT: 80
[2]; [Ab] 2 µg/mL
  F=the rate of change in glucose concentration in relation to the reference: 102%
  Glucose concentration t=0: 143
  Glucose concentration t=60: 163
  Glucose concentration t=120: 138
  Glucose concentration t=180: 75
  dC/dT: 63
[2]; [Ab] 4 µg/mL
  F=the rate of change in glucose concentration in relation to the reference: 19%
  Glucose concentration t=0: 146
  Glucose concentration t=60: 149
  Glucose concentration t=120: 140
  Glucose concentration t=180: 125
  Glucose concentration t=240: 116
  dC/dT: 12
[2]; [Ab] 8 µg/mL
  F=the rate of change in glucose concentration in relation to the reference: 18%
  Glucose concentration t=0: 145
  Glucose concentration t=60: 164
  Glucose concentration t=120: 149
  Glucose concentration t=180: 132
  Glucose concentration t=240: 127
  dC/dT: 11
[2]; [Ab] 16 µg/mL
  F=the rate of change in glucose concentration in relation to the reference: 6%
  Glucose concentration t=0: 142
  Glucose concentration t=60: 152
  Glucose concentration t=120: 152
  Glucose concentration t=180: 141
  Glucose concentration t=240: 145
  dC/dT: 4
[2]; [Ab] 32 µg/mL
  F=the rate of change in glucose concentration in relation to the reference: 5%
  Glucose concentration t=0: 146
  Glucose concentration t=60: 150
  Glucose concentration t=120: 143
  Glucose concentration t=180: 142
  Glucose concentration t=240: 137
  dC/dT: 3

Source: patent EP3717657B1, “A SYSTEM FOR ASSESSING MICROBIAL SUSCEPTIBILITY TO ANTIBIOTIC AGENTS” (Ascilion AB, priority 2017, dated 2019)
